From PubChem BioAssay AID248 (DTP/NCI, 2004)
Inconclusive results and toxic doses are left out. No stated cut-off is given here; in the data, active means T/C of 150% or more; inactive means T/C below 125%.

System: L1210 leukemia ip in BDF1 mice, survival T/C
Assay: NCI In Vivo Anticancer Drug Screen. Data for tumor model L1210 Leukemia (intraperitoneal) in B6D2F1 (BDF1) mice
Details: endpoint: mean survival time, higher = longer survival
Summary of the method: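 Survival endpoint. Drug-treated group vs vehicle group, expressed as T divided by C. Tumor passaged by transplantation.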

[1] = dose: 100.0 mg/kg/injection, schedule: Q04DX002 (ip), vehicle: saline with Tween-80
[2] = dose: 200.0 mg/kg/injection, schedule: Q04DX002 (ip), vehicle: saline with Tween-80
[3] = dose: 200.0 mg/kg/injection, schedule: Q01DX001 (ip), vehicle: saline
[4] = dose: 400.0 mg/kg/injection, schedule: Q01DX001 (ip), vehicle: saline
[5] = dose: 100.0 mg/kg/injection, schedule: Q01DX001 (ip), vehicle: saline
[6] = dose: 100.0 mg/kg/injection, schedule: Q04DX002 (ip), vehicle: Klucel (hydroxypropylcellulose) (HPC)
[7] = dose: 200.0 mg/kg/injection, schedule: Q04DX002 (ip), vehicle: Klucel (hydroxypropylcellulose) (HPC)
[8] = dose: 400.0 mg/kg/injection, schedule: Q04DX002 (ip), vehicle: Klucel (hydroxypropylcellulose) (HPC)
[9] = dose: 50.0 mg/kg/injection, schedule: Q01DX001 (ip), vehicle: carboxymethylcellulose (CMC)
[10] = dose: 100.0 mg/kg/injection, schedule: Q01DX001 (ip), vehicle: carboxymethylcellulose (CMC)
[11] = dose: 200.0 mg/kg/injection, schedule: Q01DX001 (ip), vehicle: carboxymethylcellulose (CMC)
[12] = dose: 100.0 mg/kg/injection, schedule: Q01DX009 (ip), vehicle: Klucel (hydroxypropylcellulose) (HPC)
[13] = dose: 200.0 mg/kg/injection, schedule: Q01DX009 (ip), vehicle: Klucel (hydroxypropylcellulose) (HPC)
[14] = dose: 400.0 mg/kg/injection, schedule: Q01DX009 (ip), vehicle: Klucel (hydroxypropylcellulose) (HPC)
[15] = dose: 100.0 mg/kg/injection, schedule: Q04DX003 (ip), vehicle: saline with Tween-80
[16] = dose: 200.0 mg/kg/injection, schedule: Q04DX003 (ip), vehicle: saline with Tween-80
[17] = dose: 400.0 mg/kg/injection, schedule: Q04DX003 (ip), vehicle: saline with Tween-80

Measured: T/C

CC(=O)OCCC(CCCl)OC(C)=O (stereo not drawn)
inactive: [1] 111 % of control | [2] 104 % of control | dose: 400.0 mg/kg/injection, schedule: Q04DX002 (ip), vehicle: saline with Tween-80 93 % of control

N=C(N)CSSCC(=N)N
inactive: dose: 12.5 mg/kg/injection, schedule: Q04DX003 (ip), vehicle: carboxymethylcellulose (CMC) 92 % of control | dose: 25.0 mg/kg/injection, schedule: Q04DX003 (ip), vehicle: carboxymethylcellulose (CMC) 98 % of control | dose: 50.0 mg/kg/injection, schedule: Q04DX003 (ip), vehicle: carboxymethylcellulose (CMC) 98 % of control

COc1ccc(C2ON2C2CCCCC2)cc1OC (stereo not drawn)
inactive: [3] 106 % of control | [4] 100 % of control

Ic1ccc2c(c1)OCCOCCOCCOCCO2
inactive: dose: 50.0 mg/kg/injection, schedule: Q04DX002 (ip), vehicle: saline with Tween-80 102 % of control | [1] 102 % of control | [2] 107 % of control

CCOC(=O)CCc1c(C)c2ccc(O)cc2oc1=O
inactive: [5] 98 % of control | [3] 104 % of control | [4] 94 % of control

O=[N+]([O-])c1ccc(-c2ccc([N+](=O)[O-])cc2)cc1
inactive: [6] 98 % of control | [7] 124 % of control | [8] 95 % of control

O=C1C2(c3ccccc3)CC(CBr)C1(c1ccccc1)C(c1ccccc1)=C2c1ccccc1 (stereo not drawn)
inactive: [9] 97 % of control | [10] 100 % of control | [11] 97 % of control | dose: 400.0 mg/kg/injection, schedule: Q01DX001 (ip), vehicle: carboxymethylcellulose (CMC) 97 % of control

CCOC(CCc1c(-c2ccccc2)nc(NC(C)=O)[nH]c1=O)OCC
inactive: [12] 105 % of control | [13] 100 % of control | [14] 92 % of control

COc1ccc(/C=N\NC(=O)CCCC(=O)N/N=C/c2ccc(OC)cc2)cc1
inactive: dose: 50.0 mg/kg/injection, schedule: Q01DX001 (ip), vehicle: other 93 % of control | dose: 100.0 mg/kg/injection, schedule: Q01DX001 (ip), vehicle: other 88 % of control | dose: 200.0 mg/kg/injection, schedule: Q01DX001 (ip), vehicle: other 90 % of control

O=C(OC1CCC2CC21)c1ccc([N+](=O)[O-])cc1[N+](=O)[O-] (stereo not drawn)
inactive: dose: 100.0 mg/kg/injection, schedule: Q01DX001 (ip), vehicle: Klucel (hydroxypropylcellulose) (HPC) 98 % of control | dose: 200.0 mg/kg/injection, schedule: Q01DX001 (ip), vehicle: Klucel (hydroxypropylcellulose) (HPC) 95 % of control | dose: 400.0 mg/kg/injection, schedule: Q01DX001 (ip), vehicle: Klucel (hydroxypropylcellulose) (HPC) 106 % of control

CC(C)=CCO
inactive: dose: 100.0 mg/kg/injection, schedule: Q01DX009 (ip), vehicle: saline 96 % of control | dose: 200.0 mg/kg/injection, schedule: Q01DX009 (ip), vehicle: saline 93 % of control | dose: 400.0 mg/kg/injection, schedule: Q01DX009 (ip), vehicle: saline 88 % of control

O=P(NN1CCCCC1)(NN1CCCCC1)c1ccccc1
inactive: dose: 100.0 mg/kg/injection, schedule: Q01DX009 (ip), vehicle: carboxymethylcellulose (CMC) 93 % of control | dose: 200.0 mg/kg/injection, schedule: Q01DX009 (ip), vehicle: carboxymethylcellulose (CMC) 93 % of control

CC1CCCC2=[N+]1CCCC2 (stereo not drawn)
inactive: [9] 96 % of control | [10] 96 % of control | [11] 93 % of control

COc1ccccc1C(=O)N/N=C\c1c[nH]c2ccccc12
inactive: [6] 93 % of control | [7] 89 % of control | [8] 89 % of control

CC(C)(C1c2ccccc2C(=O)c2ccccc21)[N+](=O)[O-]
inactive: [12] 101 % of control | dose: 100.0 mg/kg/injection, schedule: Q04DX003 (ip), vehicle: Klucel (hydroxypropylcellulose) (HPC) 98 % of control | [13] 94 % of control | dose: 200.0 mg/kg/injection, schedule: Q04DX003 (ip), vehicle: Klucel (hydroxypropylcellulose) (HPC) 101 % of control | [14] 99 % of control | dose: 400.0 mg/kg/injection, schedule: Q04DX003 (ip), vehicle: Klucel (hydroxypropylcellulose) (HPC) 101 % of control

COC1OC(CO)C(O)C1n1cnc2c(N)ncnc21 (stereo not drawn)
inactive: dose: 25.0 mg/kg/injection, schedule: Q01DX001 (ip), vehicle: saline 90 % of control | dose: 50.0 mg/kg/injection, schedule: Q01DX001 (ip), vehicle: saline 106 % of control | [5] 103 % of control

CC(C)=CCC(CCN1CCCCC1)(C(N)=O)c1cccc2ccccc12 (stereo not drawn)
inactive: dose: 1.5 mg/kg/injection, schedule: Q01DX009 (ip), vehicle: Klucel (hydroxypropylcellulose) (HPC) 104 % of control | dose: 3.12 mg/kg/injection, schedule: Q01DX009 (ip), vehicle: Klucel (hydroxypropylcellulose) (HPC) 104 % of control | dose: 6.25 mg/kg/injection, schedule: Q01DX009 (ip), vehicle: Klucel (hydroxypropylcellulose) (HPC) 95 % of control | dose: 6.25 mg/kg/injection, schedule: Q04DX002 (ip), vehicle: Klucel (hydroxypropylcellulose) (HPC) 97 % of control | dose: 12.5 mg/kg/injection, schedule: Q04DX002 (ip), vehicle: Klucel (hydroxypropylcellulose) (HPC) 97 % of control | dose: 25.0 mg/kg/injection, schedule: Q04DX002 (ip), vehicle: Klucel (hydroxypropylcellulose) (HPC) 103 % of control

CCOC(=O)c1ccc(NC(=S)NC(=O)/C=C/c2ccccc2)cc1
inactive: dose: 100.0 mg/kg/injection, schedule: Q01DX009 (ip), vehicle: saline with Tween-80 92 % of control | [15] 91 % of control | dose: 200.0 mg/kg/injection, schedule: Q01DX009 (ip), vehicle: saline with Tween-80 100 % of control | [16] 94 % of control | dose: 400.0 mg/kg/injection, schedule: Q01DX009 (ip), vehicle: saline with Tween-80 97 % of control | [17] 101 % of control

CCOC(=O)C(C=O)C(C(=O)OCC)C(OCC)OCC (stereo not drawn)
inactive: [15] 111 % of control | [16] 104 % of control | [17] 109 % of control

O=S(=O)(F)c1ccc(C[P+](c2ccccc2)(c2ccccc2)c2ccccc2)cc1
inactive: dose: 75.0 mg/kg/injection, schedule: Q01DX001 (ip), vehicle: saline 106 % of control | dose: 150.0 mg/kg/injection, schedule: Q01DX001 (ip), vehicle: saline 105 % of control | dose: 300.0 mg/kg/injection, schedule: Q01DX001 (ip), vehicle: saline 98 % of control
